The results in this text go back to patent publication US20260364080A1, “PYRAZOLO-PYRIMIDINONE COMPOUNDS FOR USE IN METHODS OF INHIBITING WEE1 A KINASE” (Acrivon Therapeutics, Inc., priority 2023, published 2026).

Read-outs that look alike come from different tables or passages of the source.

For experiment [1], the target named is T1, Wee1A kinase (CDK1 Tyr15 phosphorylation in ACHN renal cell carcinoma cells) (Homo sapiens, UniProt P30291).
T1 construct: pCDK1 Tyr15 immunofluorescence read-out
T1 sequence (P30291 whole entry): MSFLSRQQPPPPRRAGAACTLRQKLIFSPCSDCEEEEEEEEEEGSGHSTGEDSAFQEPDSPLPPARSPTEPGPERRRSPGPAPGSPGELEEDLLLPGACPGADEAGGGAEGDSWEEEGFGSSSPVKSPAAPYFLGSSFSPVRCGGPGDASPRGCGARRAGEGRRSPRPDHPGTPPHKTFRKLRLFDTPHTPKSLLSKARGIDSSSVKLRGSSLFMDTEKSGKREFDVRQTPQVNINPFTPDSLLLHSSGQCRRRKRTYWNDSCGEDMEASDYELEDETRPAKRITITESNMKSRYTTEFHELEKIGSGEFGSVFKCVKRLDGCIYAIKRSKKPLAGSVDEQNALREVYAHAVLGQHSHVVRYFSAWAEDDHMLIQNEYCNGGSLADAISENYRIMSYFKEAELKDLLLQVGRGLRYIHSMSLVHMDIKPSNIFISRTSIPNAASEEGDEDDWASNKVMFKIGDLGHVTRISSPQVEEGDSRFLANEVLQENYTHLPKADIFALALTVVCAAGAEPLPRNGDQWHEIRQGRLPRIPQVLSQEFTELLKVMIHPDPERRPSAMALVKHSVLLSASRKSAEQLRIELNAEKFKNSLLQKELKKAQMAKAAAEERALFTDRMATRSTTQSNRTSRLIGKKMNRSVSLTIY
The experiment can be described thus: High-content imaging of pCdk1 Y15, Wee1A kinase target engagement in ACHN cells. The class given is cell-based. Put shortly:
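ACHN cells exposed to compound for 4 h over 7–5,000 nM or 0.3–200 nM, then fixed and immunostained for pCDK1 Y15 with DAPI nuclear counterstain. The percentage of pCdk1 Y15 nucleus-positive cells relative to DMSO control was imaged per well; EC50 from dose-response curves.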

The target of experiment [2] is T2, recombinant human Wee1A kinase (Homo sapiens, UniProt P30291).
T2 construct: full length Wee1 kinase was expressed by baculovirus in insect cells; purchased Invitrogen PV3817; host or cells: insect cells (baculovirus)
T2 sequence (P30291 whole entry): as above
In words: Wee1A kinase binding assay (LanthaScreen Eu time-resolved FRET). Put shortly: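 Full-length, baculovirus-expressed GST-tagged Wee1A (5 nM) was mixed with 2 nM Eu-anti-GST antibody, 30 nM kinase tracer 178 and compound (1% DMSO). Buffer was 50 mM HEPES pH 7.5, 10 mM MgCl2, 1 mM EGTA, 0.01% Brij-35, incubated 60 min at room temperature. TR-FRET 665/615 nm emission ratios from duplicates were curve-fitted.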
(In general: In TR-FRET formats the signal depends on donor and acceptor labels being close together.)

In experiment [3] the target is T3, Myt1 kinase (recombinant PMYT-1) (Homo sapiens, UniProt Q99640).
T3 construct: full length PMYT-1 was expressed by baculovirus in insect cells; purchased Invitrogen A30984; host or cells: insect cells (baculovirus)
T3 sequence (Q99640 1-499): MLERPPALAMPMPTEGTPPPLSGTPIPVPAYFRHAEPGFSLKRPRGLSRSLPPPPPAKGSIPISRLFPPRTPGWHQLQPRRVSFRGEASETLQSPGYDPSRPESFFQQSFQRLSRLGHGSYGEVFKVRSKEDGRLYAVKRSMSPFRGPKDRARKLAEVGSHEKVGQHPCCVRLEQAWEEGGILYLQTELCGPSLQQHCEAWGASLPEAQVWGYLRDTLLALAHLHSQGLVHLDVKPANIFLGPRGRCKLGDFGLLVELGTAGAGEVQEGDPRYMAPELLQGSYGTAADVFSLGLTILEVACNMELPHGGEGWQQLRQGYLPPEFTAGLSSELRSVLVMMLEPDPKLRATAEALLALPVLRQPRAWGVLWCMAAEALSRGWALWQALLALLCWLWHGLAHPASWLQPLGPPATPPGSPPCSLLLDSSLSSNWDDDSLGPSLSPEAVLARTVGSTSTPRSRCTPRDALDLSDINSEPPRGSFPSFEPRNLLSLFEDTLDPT
In words: Myt1 kinase binding assay (LanthaScreen Eu Kinase Binding Assay). In outline: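 The binding affinity of compounds for Myt1 kinase was measured with a LanthaScreen Europium (Eu) Kinase Binding Assay, a time-resolved FRET format in which test compounds compete against a labeled kinase tracer, and the results were expressed as IC50 values describing compound binding to Myt1.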

Setting [4] is: 4 h treatment, nuclear positivity for pCdk1 Y15 vs DMSO control, read-out: CDK1 Tyr15 Phosphorylation EC50.
Where [5] appears, read: 30 nM tracer 178, 5 nM Wee1A kinase, 2 nM Eu-labeled antibody, 60 minutes at room temperature, read-out: Wee1A kinase Binding IC50.
[6] abbreviates: 3 nM tracer 178, 2.5 nM PMYT-1, 1 nM Eu-labeled antibody, read-out: Myt1 kinase Binding IC50.

By EC50 is commonly meant the midpoint of the concentration-response curve. A word on the IC50: it is the point on the concentration scale where inhibition reaches its midpoint. Consider `CCn1c(=O)c2cnc(Nc3ccccc3)nc2n1-c1cccc(OC2CCN(C)CC2)n1` [Compound 117, 6-anilino-2-ethyl-1-[6-(1-methyl-4-piperidyloxy)-2-pyridyl]-1,2-dihydro-3H-1,2,5,7-tetraazainden-3-one], for which the EC50 in experiment [1] (setting [4]) is below 100 nM. The IC50 in experiment [2] (setting [5]) is below 10 nM; in experiment [3] (setting [6]) it was 20 to 100 nM.
On to `C=CCn1c(=O)c2cnc(Nc3ccc(Cl)cc3)nc2n1-c1cccc(O[C@@H]2CCCNC2)n1` [Compound 192, 1-{6-[(R)-3-piperidyloxy]-2-pyridyl}-2-allyl-6-(p-chlorophenylamino)-1,2-dihydro-3H-1,2,5,7-tetraazainden-3-one], for which, in experiment [1] (setting [4]), the EC50 fell in the range of 100 to 500 nM. The IC50 in experiment [2] (setting [5]) was below 10 nM; in experiment [3] (setting [6]), 100 to 500 nM.
Regarding `C=CCn1c(=O)c2cnc(Nc3ccc(F)cc3)nc2n1-c1ccnc(OC2CCN(C)CC2)n1` [Compound 348, 2-allyl-6-((4-fluorophenyl)amino)-1-(2-((1-methylpiperidin-4-yl)oxy)pyrimidin-4-yl)-1,2-dihydro-3H-pyrazolo[3,4-d]pyrimidin-3-one], the EC50 in experiment [1] (setting [4]) is below 100 nM. Further, the IC50 in experiment [2] (setting [5]) is below 10 nM; in experiment [3] (setting [6]), 20 to 100 nM.
For the molecule `C=CCn1c(=O)c2cnc(Nc3ccc(Cl)cc3)nc2n1-c1cccc(N[C@@H]2CCCNC2)n1` [Compound 166, 1-{6-[(R)-3-piperidylamino]-2-pyridyl}-2-allyl-6-(p-chlorophenylamino)-1,2-dihydro-3H-1,2,5,7-tetraazainden-3-one], the EC50 in experiment [1] (setting [4]) was above 1000 nM. The IC50 in experiment [2] (setting [5]) was below 10 nM; in experiment [3] (setting [6]), 100 to 500 nM.
As to `CCn1c(=O)c2cnc(Nc3ccc(C#N)cc3)nc2n1-c1cccc(OC2CCNCC2)n1` [Compound 302, p-{2-ethyl-3-oxo-1-[6-(4-piperidyloxy)-2-pyridyl]-1,2-dihydro-3H-1,2,5,7-tetraazainden-6-ylamino}benzonitrile], the EC50 in experiment [1] (setting [4]) lay in the range of 500 to 1000 nM. The figures for the IC50 in experiment [2] (setting [5]) and in experiment [3] (setting [6]) were below 10 nM and 20 to 100 nM, respectively.
The matching figures for `C=CCn1c(=O)c2cnc(Nc3cccc(Br)c3)nc2n1-c1cccc(OC2CCN(C)CC2)n1` [Compound 269, 2-allyl-6-(m-bromophenylamino)-1-[6-(1-methyl-4-piperidyloxy)-2-pyridyl]-1,2-dihydro-3H-1,2,5,7-tetraazainden-3-one]: 100 to 500 nM, below 10 nM and below 20 nM.
`C=CCn1c(=O)c2cnc(Nc3ccc(OCC(F)(F)F)cc3)nc2n1-c1cccc(NC2CCNCC2)n1` [Compound 130, 2-allyl-1-[6-(4-piperidylamino)-2-pyridyl]-6-[p-(2,2,2-trifluoroethoxy)phenylamino]-1,2-dihydro-3H-1,2,5,7-tetraazainden-3-one]: the EC50 in experiment [1] (setting [4]) is 500 to 1000 nM. For the same molecule, the IC50 in experiment [2] (setting [5]) was below 10 nM; in experiment [3] (setting [6]), 20 to 100 nM.
`C=CCn1c(=O)c2cnc(Nc3ccc4nn(C)cc4c3)nc2n1-c1cccc(OC2CCNCC2)n1` [Compound 274, 2-allyl-6-((2-methyl-2H-indazol-5-yl)amino)-1-(6-(piperidin-4-yloxy)pyridin-2-yl)-1,2-dihydro-3H-pyrazolo[3,4-d]pyrimidin-3-one]: in experiment [1] (setting [4]), the EC50 was in the range of 100 to 500 nM. Further, the results for the IC50 in experiment [2] (setting [5]) and in experiment [3] (setting [6]) were below 10 nM and below 20 nM, respectively.
Consider `C=CCn1c(=O)c2cnc(Nc3cc(C)cc(F)c3)nc2n1-c1cccc(NC2CCNCC2)n1` [Compound 160, 2-allyl-6-(3-fluoro-5-toluidino)-1-[6-(4-piperidylamino)-2-pyridyl]-1,2-dihydro-3H-1,2,5,7-tetraazainden-3-one], for which the EC50 in experiment [1] (setting [4]) lay within 100 to 500 nM. Also, the IC50 is below 10 nM in experiment [2] (setting [5]) and 100 to 500 nM in experiment [3] (setting [6]).
For `C=CCn1c(=O)c2cnc(Nc3ccc4nccn4c3)nc2n1-c1cccc(OC2CCNCC2)n1` [Compound 324, 6-(1,3a-diaza-5-indenylamino)-2-allyl-1-[6-(4-piperidyloxy)-2-pyridyl]-1,2-dihydro-3H-1,2,5,7-tetraazainden-3-one], the EC50 in experiment [1] (setting [4]) is above 1000 nM. The IC50 is below 10 nM in experiment [2] (setting [5]) and 20 to 100 nM in experiment [3] (setting [6]).
For the molecule `C=CCn1c(=O)c2cnc(Nc3cnn(CCC(F)(F)F)c3)nc2n1-c1cccc(N(C)C2CCN(C)CC2)n1` [Compound 201, 2-allyl-1-(6-(methyl(1-methylpiperidin-4-yl)amino)pyridin-2-yl)-6-((1-(3,3,3-trifluoropropyl)-1H-pyrazol-4-yl)amino)-1,2-dihydro-3H-pyrazolo[3,4-d]pyrimidin-3-one], in experiment [1] (read-out: CDK1 Tyr15 Phosphorylation EC50, 4 h treatment, nuclear positivity for pCdk1 Y15 vs DMSO control), the EC50 lay in the range of 500 to 1000 nM. The IC50 in experiment [2] was below 10 nM; in experiment [3] (Myt1 kinase Binding IC50, 3 nM tracer 178, 2.5 nM PMYT-1, 1 nM Eu-labeled antibody) it was 100 to 500 nM.
In the case of `C=CCn1c(=O)c2cnc(Nc3ccc(F)cc3)nc2n1-c1cccc(OC2CCCN(C)CC2)n1` (single isomer, unassigned) [Compound 351], the EC50 in experiment [1] (setting [4]) is below 100 nM. For the same molecule, the figures for the IC50 in experiment [2] (setting [5]) and in experiment [3] (setting [6]) were below 10 nM and 20 to 100 nM, respectively.
Consider `C=CCn1c(=O)c2cnc(Nc3ccc(OCCF)cc3)nc2n1-c1ccnc(OC2CCNCC2)n1` [Compound 391, 2-allyl-6-((4-(2-fluoroethoxy)phenyl)amino)-1-(2-(piperidin-4-yloxy)pyrimidin-4-yl)-1,2-dihydro-3H-pyrazolo[3,4-d]pyrimidin-3-one], for which the EC50 in experiment [1] (setting [4]) lay within 100 to 500 nM. The figures for the IC50 in experiment [2] (setting [5]) and in experiment [3] (setting [6]) were below 10 nM and 20 to 100 nM, respectively.
For `C=CCn1c(=O)c2cnc(Nc3ccc4c(cnn4C)c3)nc2n1-c1cccc(OC2CCNC(C)C2)n1` [Compound 404, rel-2-allyl-6-((1-methyl-1H-indazol-5-yl)amino)-1-(6-(((2R,4R)-2-methylpiperidin-4-yl)oxy)pyridin-2-yl)-1,2-dihydro-3H-pyrazolo[3,4-d]pyrimidin-3-one], in experiment [1] (setting [4]), the EC50 was below 100 nM. The IC50 in experiment [2] (setting [5]) was below 10 nM; in experiment [3] (setting [6]), 20 to 100 nM.
For `C=CCn1c(=O)c2cnc(Nc3ccc(Cl)cc3)nc2n1-c1cccc(O[C@@H]2CCCN(C)C2)n1` [Compound 187, 1-{6-[(R)-1-methyl-3-piperidyloxy]-2-pyridyl}-2-allyl-6-(p-chlorophenylamino)-1,2-dihydro-3H-1,2,5,7-tetraazainden-3-one], the EC50 in experiment [1] (setting [4]) lay within 500 to 1000 nM. Moreover, the IC50 was below 10 nM in experiment [2] (setting [5]) and 100 to 500 nM in experiment [3] (setting [6]).
Consider `C=CCn1c(=O)c2cnc(Nc3cccc(-n4ccnc4)c3)nc2n1-c1cccc(OC2CCN(C)CC2)n1` [Compound 365, 2-allyl-6-[m-(1-imidazolyl)phenylamino]-1-[6-(1-methyl-4-piperidyloxy)-2-pyridyl]-1,2-dihydro-3H-1,2,5,7-tetraazainden-3-one], for which the EC50 in experiment [1] (setting [4]) was below 100 nM. In addition, the IC50 in experiment [2] (setting [5]) was below 10 nM; in experiment [3] (setting [6]), 20 to 100 nM.
The matching figures for `C=CCn1c(=O)c2cnc(Nc3ccc4c(cnn4C(C)C)c3)nc2n1-c1ccnc(OC2CCNCC2)n1` [Compound 375, 2-allyl-6-((1-isopropyl-1H-indazol-5-yl)amino)-1-(2-(piperidin-4-yloxy)pyrimidin-4-yl)-1,2-dihydro-3H-pyrazolo[3,4-d]pyrimidin-3-one]: below 100 nM, below 10 nM and 20 to 100 nM.
For `C=CCn1c(=O)c2cnc(Nc3ccc4c(cnn4C)c3)nc2n1-c1cccc(O[C@H]2CCN[C@H](C)C2)n1` (stereo in doubt) [Compound 379, 2-allyl-6-((1-methyl-1H-indazol-5-yl)amino)-1-(6-(((2R,4S)-2-methylpiperidin-4-yl)oxy)pyridin-2-yl)-1,2-dihydro-3H-pyrazolo[3,4-d]pyrimidin-3-one], the EC50 in experiment [1] (setting [4]) is 100 to 500 nM. In addition, the IC50 in experiment [2] (setting [5]) is below 10 nM; in experiment [3] (setting [6]), 100 to 500 nM.
`C=CCn1c(=O)c2cnc(Nc3ccc(Cl)c(Cl)c3)nc2n1-c1cccc(NC2CCNCC2)n1` [Compound 146, 2-allyl-6-(3,4-dichlorophenylamino)-1-[6-(4-piperidylamino)-2-pyridyl]-1,2-dihydro-3H-1,2,5,7-tetraazainden-3-one]: in experiment [1] (setting [4]), the EC50 is above 1000 nM. Further, the IC50 in experiment [2] (setting [5]) was below 10 nM; in experiment [3] (setting [6]), 100 to 500 nM.
